Reference: patent US12466821B2 (Novartis AG, priority 2018, dated 2025)

Assays:
[1] = molecular target: human HSV DNA polymerase UL30 (Human herpesvirus 1 (strain 17) (HHV-1) (Human herpes simplex virus 1), UniProt P04293); experiment: HSV polymerase biochemical assay (molecular beacon-based)
Method in brief: (§1)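 Full-length wild-type N-terminal MBP-fusion polymerases from sf9 cells were used at 100 pM (CMV) or 625 pM (HSV) in Tris pH 7.5, 10 mM MgCl2, and preincubated with inhibitor for 30 min at RT. Reactions with 1.25 uM each dNTP, 200 nM primer and 100 nM molecular beacon ran 60 min (CMV) or 20 min (HSV) at RT. Fluorescence was read at 480/535 nm and IC50 derived.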

[2] = molecular target: human CMV DNA polymerase UL54 (Human cytomegalovirus (strain AD169) (HHV-5) (Human herpesvirus 5), UniProt P08546); experiment: CMV polymerase biochemical assay (molecular beacon-based)
Method in brief: as §1

[3] = tested on: Luciferase-encoding HCMV, AD169 strain; experiment: CMV Luciferase assay (cellular herpesvirus replication); type: cell-based; conditions: Human betaherpesvirus 5, AD169, read-out: CMV-Luc Cellular EC50
Method in brief: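 Reporter HCMV AD169 with luciferase driven by late pp28 promoter, so signal requires viral DNA replication; NN-NHDF fibroblasts in 2% FBS medium, compound (0.0159–50 or 0.00318–10 μM, 0.5% DMSO) added 1 h before infection at MOI 1. Luminescence read 72 hpi; EC50 from 4-parameter fit of control-normalized %.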

Molecule `O=C(NCc1ccc(Cl)cc1)c1ccc2n(c1=O)CCN(CC1(S(=O)(=O)N3CCC3)CC1)C2=O` [Example 87, 2-((1-(azetidin-1-ylsulfonyl)cyclopropyl)methyl)-N-(4-chlorobenzyl)-1,6-dioxo-2,3,4,6-tetrahydro-1H-pyrido[1,2-a]pyrazine-7-carboxamide] has an IC50 [1] of 35.1 nM, an IC50 [2] of 1.2 nM and an EC50 [3] of 25.7 nM.
Work on `O=C(NCc1ccc(Cl)cc1)c1ccc2n(c1=O)CCN(CC1(N3CCOC3=O)CC1)C2=O` [Example 89-1, N-(4-chlorobenzyl)-1,6-dioxo-2-((1-(2-oxooxazolidin-3-yl)cyclopropyl)methyl)-2,3,4,6-tetrahydro-1H-pyrido[1,2-a]pyrazine-7-carboxamide] yielded an IC50 [1] of 1260 nM, an IC50 [2] of 79.3 nM and an EC50 [3] of 4900 nM.
`N#Cc1ccc(CNC(=O)c2ccc3n(c2=O)CCN(CC2(S(=O)(=O)N4CCC4)CC2)C3=O)cc1F` [Example 88-1, 2-((1-(azetidin-1-ylsulfonyl)cyclopropyl)methyl)-N-(4-cyano-3-fluorobenzyl)-1,6-dioxo-2,3,4,6-tetrahydro-1H-pyrido[1,2-a]pyrazine-7-carboxamide] was tested, and the IC50 [1] was 65.1 nM, the IC50 [2] was 2 nM and the EC50 [3] was 24.2 nM.
`N#Cc1ccc(CNC(=O)c2ccc3n(c2=O)CCN(CC2(S(=O)(=O)CC4(C(F)(F)F)CC4)CC2)C3=O)cc1F` [Example 104-3] gave an IC50 [1] of 273 nM, an IC50 [2] of 10.1 nM and an EC50 [3] of 1080 nM.
With `CC(=O)NS(=O)(=O)C1(CN2CCn3c(ccc(C(=O)NCc4ccc(Cl)cc4)c3=O)C2=O)CC1` [Example 72-3, 2-((1-(N-acetylsulfamoyl)cyclopropyl)methyl)-N-(4-chlorobenzyl)-1,6-dioxo-2,3,4,6-tetrahydro-1H-pyrido[1,2-a]pyrazine-7-carboxamide] the IC50 [1] was 31.1 nM, the IC50 [2] was 0.8 nM and the EC50 [3] was 805 nM.
For `CN1CC(S(=O)(=O)C2(CN3CCn4c(ccc(C(=O)NCc5ccc(C#N)c(F)c5)c4=O)C3=O)CC2)C1` [Example 17, N-(4-cyano-3-fluorobenzyl)-2-((1-((1-methylazetidin-3-yl)sulfonyl)cyclopropyl)methyl)-1,6-dioxo-2,3,4,6-tetrahydro-1H-pyrido[1,2-a]pyrazine-7-carboxamide], the IC50 [1] was 380 nM, the IC50 [2] was 14.7 nM and the EC50 [3] was 905 nM.
`CS(=O)(=O)C1(CN2CCn3c(ccc(C(=O)NCC4CCC(F)(F)CC4)c3=O)C2=O)CC1` [Example 43] showed an IC50 [1] of 7860 nM, an IC50 [2] of 62.5 nM and an EC50 [3] of 6420 nM.
Molecule `CS(=O)(=O)NCCN1CCn2c(ccc(C(=O)NCc3ccc(Cl)cc3)c2=O)C1=O` [Example 62, N-(4-chlorobenzyl)-2-(2-(methylsulfonamido)ethyl)-1,6-dioxo-2,3,4,6-tetrahydro-1H-pyrido[1,2-a]pyrazine-7-carboxamide] has an IC50 [1] of 4300 nM, an IC50 [2] of 657 nM and an EC50 [3] of 19900 nM.
`O=C(NCc1ccc(Cl)cc1)c1cc(Br)c2n(c1=O)CCN(CCN1CCCS1(=O)=O)C2=O` [Example 124, 9-bromo-N-(4-chlorobenzyl)-2-(2-(1,1-dioxidoisothiazolidin-2-yl)ethyl)-1,6-dioxo-1,3,4,6-tetrahydro-2H-pyrido[1,2-a]pyrazine-7-carboxamide] gave an IC50 [1] of 310 nM, an IC50 [2] of 83.1 nM and an EC50 [3] of 874 nM.
Work on `CS(=O)(=O)C1(CN2CCn3c(ccc(C(=O)NCc4ccc(Cl)c(F)c4)c3=O)C2=O)CC1` [Example 41] yielded an IC50 [1] of 123 nM, an IC50 [2] of 2.8 nM and an EC50 [3] of 42.9 nM.
`N#Cc1ccc(CNC(=O)c2ccc3n(c2=O)CCN(CC2(S(=O)(=O)C4CCC4)CC2)C3=O)cc1` [Example 79-1] showed an IC50 [1] of 33.4 nM, an IC50 [2] of 1.3 nM and an EC50 [3] of 33.7 nM.
For `CC(C)(c1ncno1)S(=O)(=O)C1(CN2CCn3c(ccc(C(=O)NCc4ccc(Cl)cc4)c3=O)C2=O)CC1` [Example 178, 2-((1-((2-(1,2,4-oxadiazol-5-yl)propan-2-yl)sulfonyl)cyclopropyl)methyl)-N-(4-chlorobenzyl)-1,6-dioxo-1,3,4,6-tetrahydro-2H-pyrido[1,2-a]pyrazine-7-carboxamide], the IC50 [1] was 10 nM, the IC50 [2] was 0.3 nM and the EC50 [3] was 43.4 nM.
For `CS(=O)(=O)CCCN1CCn2c(c(CO)cc(C(=O)NCc3ccc(Cl)cc3)c2=O)C1=O` [Example 139], the IC50 [1] was 3580 nM, the IC50 [2] was 989 nM and the EC50 [3] was 50000 nM.
In the case of `C[S@@+]([O-])C1(CN2CCn3c(ccc(C(=O)NCc4ccc(Cl)cc4)c3=O)C2=O)CC1` (single isomer, unassigned) [Example 67-2, N-(4-chlorobenzyl)-2-((1-(methylsulfinyl)cyclopropyl)methyl)-1,6-dioxo-2,3,4,6-tetrahydro-1H-pyrido[1,2-a]pyrazine-7-carboxamide], the IC50 [1] is reported as 1120 nM, the IC50 [2] is reported as 35.8 nM and the EC50 [3] is reported as 478 nM.
With `CS(=O)(=O)N1CC(CN2CCn3c(ccc(C(=O)NCc4ccc(Cl)cc4)c3=O)C2=O)C1` [Example 65] the IC50 [1] was 11500 nM, the IC50 [2] was 614 nM and the EC50 [3] was 15100 nM.
With `COC1(S(=O)(=O)C2(CN3CCn4c(ccc(C(=O)NCc5ccc(C#N)c(F)c5)c4=O)C3=O)CC2)CC1` [Example 190] the IC50 [1] was 66.5 nM, the IC50 [2] was 1.4 nM and the EC50 [3] was 47.8 nM.
Molecule `CN1CC(S(=O)(=O)C2(CN3CCn4c(ccc(C(=O)NCc5ccc(C#N)cc5)c4=O)C3=O)CC2)C1` [Example 20] has an IC50 [1] of 319 nM, an IC50 [2] of 13.2 nM and an EC50 [3] of 1500 nM.
Work on `C[S@](=N)(=O)C1(CN2CCn3c(ccc(C(=O)NCc4ccc(Cl)cc4)c3=O)C2=O)CC1` (single isomer, unassigned) [Example 96-2] yielded an IC50 [1] of 1920 nM, an IC50 [2] of 66.5 nM and an EC50 [3] of 847 nM.
`CC1(S(=O)(=O)C2(CN3CCn4c(ccc(C(=O)NCc5ccc(C#N)c(F)c5)c4=O)C3=O)CC2)CC1` [Example 94-2] was tested, and the IC50 [1] was 25.3 nM, the IC50 [2] was 0.3 nM and the EC50 [3] was 7.9 nM.
Work on `CN(CCN1CCn2c(c(C(F)F)cc(C(=O)NCc3ccc(Cl)cc3)c2=O)C1=O)S(C)(=O)=O` [Example 143, N-(4-chlorobenzyl)-9-(difluoromethyl)-2-(2-(N-methylmethylsulfonamido)ethyl)-1,6-dioxo-1,3,4,6-tetrahydro-2H-pyrido[1,2-a]pyrazine-7-carboxamide] yielded an IC50 [1] of 6310 nM, an IC50 [2] of 649 nM and an EC50 [3] of 30600 nM.
In the case of `C[S+]([O-])C1(CN2CCn3c(ccc(C(=O)NCc4ccc(Cl)cc4)c3=O)C2=O)CC1` (stereo not drawn) [Example 67-1, N-(4-chlorobenzyl)-2-((1-(methylsulfinyl)cyclopropyl)methyl)-1,6-dioxo-2,3,4,6-tetrahydro-1H-pyrido[1,2-a]pyrazine-7-carboxamide], the IC50 [1] is reported as 1780 nM, the IC50 [2] is reported as 57.3 nM and the EC50 [3] is reported as 868 nM.
With `COCC(C)(C)S(=O)(=O)C1(CN2CCn3c(ccc(C(=O)NCc4ccc(C#N)cc4)c3=O)C2=O)CC1` [Example 187] the IC50 [1] was 52.9 nM, the IC50 [2] was 0.4 nM and the EC50 [3] was 14.9 nM.
`CS(=O)(=O)C1(CN2CCn3c(c(F)cc(C(=O)NCc4ccc(C#N)cc4)c3=O)C2=O)CC1` [Example 164] gave an IC50 [1] of 305 nM, an IC50 [2] of 13 nM and an EC50 [3] of 249 nM.
Molecule `N#Cc1ccc(CNC(=O)c2ccc3n(c2=O)CCN(CC2CCCS2(=O)=O)C3=O)cc1F` (stereo not drawn) [Example 82, N-(4-cyano-3-fluorobenzyl)-2-((1,1-dioxidotetrahydrothiophen-2-yl)methyl)-1,6-dioxo-2,3,4,6-tetrahydro-1H-pyrido[1,2-a]pyrazine-7-carboxamide] has an IC50 [1] of 20900 nM, an IC50 [2] of 1090 nM and an EC50 [3] of 10000 nM.
In the case of `CS(=O)(=O)C1(CN2CCn3c(c(C4CC4)cc(C(=O)NCc4ccc(Cl)cc4)c3=O)C2=O)CC1` [Example 132], the IC50 [1] is reported as 138 nM, the IC50 [2] is reported as 3.1 nM and the EC50 [3] is reported as 70.7 nM.
With `CS(=O)(=O)CCCN1CCn2c(c(N3CCCC3)cc(C(=O)NCc3ccc(Cl)cc3)c2=O)C1=O` [Example 158, N-(4-chlorobenzyl)-2-(3-(methylsulfonyl)propyl)-1,6-dioxo-9-(pyrrolidin-1-yl)-1,3,4,6-tetrahydro-2H-pyrido[1,2-a]pyrazine-7-carboxamide] the IC50 [1] was 4090 nM, the IC50 [2] was 370 nM and the EC50 [3] was 13300 nM.
With `CS(=O)(=O)N1CCC1CN1CCn2c(ccc(C(=O)NCc3ccc(Cl)cc3)c2=O)C1=O` (stereo not drawn) [Example 66] the IC50 [1] was 1180 nM, the IC50 [2] was 112 nM and the EC50 [3] was 1520 nM.
`Cc1cc(C(=O)NCc2ccc(Cl)cc2)c(=O)n2c1C(=O)N(CC1(N(C)S(C)(=O)=O)CC1)CC2` [Example 149] showed an IC50 [1] of 2200 nM, an IC50 [2] of 112 nM and an EC50 [3] of 7910 nM.
Work on `N#Cc1ccc(CNC(=O)c2ccc3n(c2=O)CCN(CC2(S(=O)(=O)C4CNC4)CC2)C3=O)cc1F` [Example 16, 2-((1-(azetidin-3-ylsulfonyl)cyclopropyl)methyl)-N-(4-cyano-3-fluorobenzyl)-1,6-dioxo-2,3,4,6-tetrahydro-1H-pyrido[1,2-a]pyrazine-7-carboxamide] yielded an IC50 [1] of 285 nM, an IC50 [2] of 6.1 nM and an EC50 [3] of 3420 nM.
Molecule `CS(=O)(=O)N(CCN1CCn2c(ccc(C(=O)NCc3ccc(Cl)cc3)c2=O)C1=O)C1CC1` [Example 115, N-(4-chlorobenzyl)-2-(2-(N-cyclopropylmethylsulfonamido)ethyl)-1,6-dioxo-2,3,4,6-tetrahydro-1H-pyrido[1,2-a]pyrazine-7-carboxamide] has an IC50 [1] of 13600 nM, an IC50 [2] of 747 nM and an EC50 [3] of 15000 nM.
`O=C(NCc1ccc(F)c(F)c1)c1ccc2n(c1=O)CCN(CC1(S(=O)(=O)C3CC3)CC1)C2=O` [Example 3-3] was tested, and the IC50 [1] was 149 nM, the IC50 [2] was 7.9 nM and the EC50 [3] was 64 nM.
Work on `CN1CCC(S(=O)(=O)C2(CN3CCn4c(ccc(C(=O)NCc5ccc(C#N)c(F)c5)c4=O)C3=O)CC2)C1` (stereo not drawn) [Example 81-2] yielded an IC50 [1] of 204 nM, an IC50 [2] of 11.3 nM and an EC50 [3] of 486 nM.
